Laboratory results taken from the supplement of paper PMC12463676, “Small-molecule dissolution of stress granules by redox modulation benefits ALS models” (Nature Chemical Biology, 2025).

Key:
[1] = compound: NC(=O)CCCCC1CCSS1 [lipoamide]; assay: thermal stability z-score vs DMSO; higher = more thermally stabilized by treatment; details: HeLa, lipoamide concentration 100 µM
Experimental: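 Cellular thermal proteome profiling in HeLa cells. Cells were treated with 100 µM lipoamide for 1 h, with or without 1 mM arsenate for a further 1 h, then heated to ten temperatures (37-66.3 °C), and soluble protein was quantified by TMT mass spectrometry relative to 0.1% DMSO controls. The thermal stability score (sum of log2 fold changes minus the abundance score) was transformed to a z-score; mean of n = 3 experiments.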

[2] = compound: O=[As]([O-])(O)O.[K+] [potassium arsenate]; assay: as above; details: HeLa; arsenate concentration 1 mM
Experimental: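 Cellular thermal proteome profiling in HeLa cells treated with 1 mM arsenate for 1 h (DMSO pretreatment), heated to ten temperatures (37-66.3 °C). Soluble protein was quantified by TMT mass spectrometry relative to DMSO controls; the thermal stability score was transformed to a z-score; mean of n = 3 experiments.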

[3] = arsenate co-treatment: 1 mM arsenate 1 h
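Further: each temperature applied for 3 min, abundance score taken as mean log2 fold change at the two lowest temperatures, z-score obtained by mean subtraction and division by SD.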

Sequence of UniProt O94923 (O94923 whole entry): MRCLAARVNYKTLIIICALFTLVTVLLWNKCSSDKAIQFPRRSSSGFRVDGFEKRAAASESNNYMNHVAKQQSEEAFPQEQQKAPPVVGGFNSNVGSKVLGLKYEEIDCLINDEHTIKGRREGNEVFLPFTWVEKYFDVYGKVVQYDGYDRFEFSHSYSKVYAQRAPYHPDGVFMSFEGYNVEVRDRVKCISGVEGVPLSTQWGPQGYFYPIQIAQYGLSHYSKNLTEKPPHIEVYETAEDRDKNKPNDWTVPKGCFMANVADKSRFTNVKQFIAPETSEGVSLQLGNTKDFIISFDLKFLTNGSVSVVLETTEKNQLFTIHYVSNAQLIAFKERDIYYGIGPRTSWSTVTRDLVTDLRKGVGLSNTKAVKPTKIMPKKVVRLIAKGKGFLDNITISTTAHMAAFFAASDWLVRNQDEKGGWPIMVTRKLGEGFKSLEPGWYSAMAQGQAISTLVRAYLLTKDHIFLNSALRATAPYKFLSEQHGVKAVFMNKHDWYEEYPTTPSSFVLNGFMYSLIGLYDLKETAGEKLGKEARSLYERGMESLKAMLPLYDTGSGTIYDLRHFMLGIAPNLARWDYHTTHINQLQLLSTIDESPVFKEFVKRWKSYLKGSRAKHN
Sequence of UniProt Q9HBH9 (Q9HBH9 whole entry, looked up): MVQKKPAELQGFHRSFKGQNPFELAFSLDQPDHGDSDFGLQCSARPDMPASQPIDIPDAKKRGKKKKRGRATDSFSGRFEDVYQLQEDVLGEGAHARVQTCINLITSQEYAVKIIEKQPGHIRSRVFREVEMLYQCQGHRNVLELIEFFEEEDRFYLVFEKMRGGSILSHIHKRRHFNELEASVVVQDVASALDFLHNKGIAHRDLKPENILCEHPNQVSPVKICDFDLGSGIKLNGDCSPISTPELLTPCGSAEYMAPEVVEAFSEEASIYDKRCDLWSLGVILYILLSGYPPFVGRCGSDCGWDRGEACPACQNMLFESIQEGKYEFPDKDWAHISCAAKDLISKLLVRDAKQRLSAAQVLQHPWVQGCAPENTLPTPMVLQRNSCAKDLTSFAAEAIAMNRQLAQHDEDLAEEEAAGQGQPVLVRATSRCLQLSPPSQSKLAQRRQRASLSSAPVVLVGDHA
Sequence of UniProt P36542 (P36542 whole entry): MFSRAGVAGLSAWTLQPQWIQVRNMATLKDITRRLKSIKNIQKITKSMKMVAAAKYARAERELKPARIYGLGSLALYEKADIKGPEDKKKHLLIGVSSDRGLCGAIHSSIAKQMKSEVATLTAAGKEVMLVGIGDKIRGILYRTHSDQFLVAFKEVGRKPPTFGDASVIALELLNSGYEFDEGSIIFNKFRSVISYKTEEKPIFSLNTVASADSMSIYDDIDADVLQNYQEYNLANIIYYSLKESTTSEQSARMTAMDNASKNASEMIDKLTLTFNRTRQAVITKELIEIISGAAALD
Sequence of UniProt Q14674 (Q14674 whole entry): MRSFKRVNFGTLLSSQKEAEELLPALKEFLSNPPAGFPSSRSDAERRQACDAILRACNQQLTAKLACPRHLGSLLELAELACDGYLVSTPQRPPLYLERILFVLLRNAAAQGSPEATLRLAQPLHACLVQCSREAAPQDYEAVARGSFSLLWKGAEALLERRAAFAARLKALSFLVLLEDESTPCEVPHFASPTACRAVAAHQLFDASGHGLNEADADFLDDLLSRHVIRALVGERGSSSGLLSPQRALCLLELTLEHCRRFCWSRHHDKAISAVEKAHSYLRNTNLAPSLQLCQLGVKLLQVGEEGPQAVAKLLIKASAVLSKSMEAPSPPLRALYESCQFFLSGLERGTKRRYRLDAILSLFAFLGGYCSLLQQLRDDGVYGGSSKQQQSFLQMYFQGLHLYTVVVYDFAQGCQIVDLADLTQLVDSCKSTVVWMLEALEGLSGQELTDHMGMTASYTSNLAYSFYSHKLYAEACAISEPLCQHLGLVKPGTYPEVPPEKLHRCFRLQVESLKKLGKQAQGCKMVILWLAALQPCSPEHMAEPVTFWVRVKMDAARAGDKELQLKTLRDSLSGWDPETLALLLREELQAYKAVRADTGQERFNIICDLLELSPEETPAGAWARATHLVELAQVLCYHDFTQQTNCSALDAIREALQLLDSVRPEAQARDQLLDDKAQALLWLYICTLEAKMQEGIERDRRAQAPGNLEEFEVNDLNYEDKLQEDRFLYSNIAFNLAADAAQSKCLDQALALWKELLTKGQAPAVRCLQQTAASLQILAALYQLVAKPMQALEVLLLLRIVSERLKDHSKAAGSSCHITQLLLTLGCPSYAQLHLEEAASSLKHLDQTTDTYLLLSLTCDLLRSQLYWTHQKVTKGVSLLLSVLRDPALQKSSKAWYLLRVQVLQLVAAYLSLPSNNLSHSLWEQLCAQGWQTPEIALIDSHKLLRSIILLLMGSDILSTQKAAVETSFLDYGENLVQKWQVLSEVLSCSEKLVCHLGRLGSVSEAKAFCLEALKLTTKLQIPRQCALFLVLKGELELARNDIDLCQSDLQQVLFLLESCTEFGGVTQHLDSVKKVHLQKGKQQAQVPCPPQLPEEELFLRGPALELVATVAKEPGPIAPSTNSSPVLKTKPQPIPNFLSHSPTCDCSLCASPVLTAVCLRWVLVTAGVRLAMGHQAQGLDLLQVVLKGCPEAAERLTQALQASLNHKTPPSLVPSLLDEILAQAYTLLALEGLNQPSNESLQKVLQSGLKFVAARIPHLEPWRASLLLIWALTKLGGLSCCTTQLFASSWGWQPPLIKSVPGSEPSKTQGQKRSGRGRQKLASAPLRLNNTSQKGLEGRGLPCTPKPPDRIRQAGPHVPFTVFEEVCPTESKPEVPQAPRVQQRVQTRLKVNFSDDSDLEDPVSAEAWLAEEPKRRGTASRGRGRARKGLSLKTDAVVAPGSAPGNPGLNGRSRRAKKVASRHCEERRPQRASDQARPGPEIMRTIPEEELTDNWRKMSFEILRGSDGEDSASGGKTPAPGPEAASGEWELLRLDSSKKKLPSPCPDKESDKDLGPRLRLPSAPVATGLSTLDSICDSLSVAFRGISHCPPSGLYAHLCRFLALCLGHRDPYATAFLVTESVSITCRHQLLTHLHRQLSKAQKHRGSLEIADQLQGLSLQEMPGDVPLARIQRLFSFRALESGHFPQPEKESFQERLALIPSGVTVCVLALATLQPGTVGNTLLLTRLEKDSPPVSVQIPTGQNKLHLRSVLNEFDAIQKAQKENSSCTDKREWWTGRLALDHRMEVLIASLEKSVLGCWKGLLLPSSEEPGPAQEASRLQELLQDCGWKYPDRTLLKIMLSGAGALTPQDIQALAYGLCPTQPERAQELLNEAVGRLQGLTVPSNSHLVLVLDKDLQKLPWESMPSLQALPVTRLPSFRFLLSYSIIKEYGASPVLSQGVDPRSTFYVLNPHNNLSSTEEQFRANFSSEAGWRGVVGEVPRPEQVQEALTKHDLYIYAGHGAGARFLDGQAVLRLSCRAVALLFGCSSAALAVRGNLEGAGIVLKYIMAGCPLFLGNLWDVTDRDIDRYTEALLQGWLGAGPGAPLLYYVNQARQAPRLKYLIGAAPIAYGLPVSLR
Sequence of UniProt P41134 (P41134 whole entry): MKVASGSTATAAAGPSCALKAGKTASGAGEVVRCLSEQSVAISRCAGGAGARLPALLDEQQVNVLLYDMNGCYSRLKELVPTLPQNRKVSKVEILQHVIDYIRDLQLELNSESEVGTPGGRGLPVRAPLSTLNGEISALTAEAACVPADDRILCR
Sequence of UniProt Q15121 (Q15121 whole entry): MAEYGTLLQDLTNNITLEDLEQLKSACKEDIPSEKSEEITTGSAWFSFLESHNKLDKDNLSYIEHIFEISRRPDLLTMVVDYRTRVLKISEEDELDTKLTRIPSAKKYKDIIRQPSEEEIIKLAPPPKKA
Sequence of UniProt Q8WXF1 (Q8WXF1 whole entry): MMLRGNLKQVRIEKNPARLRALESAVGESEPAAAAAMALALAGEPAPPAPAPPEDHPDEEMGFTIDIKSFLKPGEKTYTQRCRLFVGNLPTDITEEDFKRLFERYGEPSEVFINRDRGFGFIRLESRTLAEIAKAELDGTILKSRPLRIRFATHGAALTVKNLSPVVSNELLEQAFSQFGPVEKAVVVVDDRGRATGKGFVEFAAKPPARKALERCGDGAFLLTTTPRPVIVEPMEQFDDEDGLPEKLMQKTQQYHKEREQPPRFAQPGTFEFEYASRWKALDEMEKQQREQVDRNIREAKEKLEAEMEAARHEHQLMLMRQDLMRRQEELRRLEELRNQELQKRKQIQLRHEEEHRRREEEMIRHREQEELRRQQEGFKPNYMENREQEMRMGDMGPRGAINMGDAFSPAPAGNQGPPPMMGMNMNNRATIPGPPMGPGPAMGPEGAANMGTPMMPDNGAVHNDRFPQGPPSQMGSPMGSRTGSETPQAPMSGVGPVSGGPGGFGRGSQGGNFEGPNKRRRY
Sequence of UniProt Q09019 (Q09019 whole entry): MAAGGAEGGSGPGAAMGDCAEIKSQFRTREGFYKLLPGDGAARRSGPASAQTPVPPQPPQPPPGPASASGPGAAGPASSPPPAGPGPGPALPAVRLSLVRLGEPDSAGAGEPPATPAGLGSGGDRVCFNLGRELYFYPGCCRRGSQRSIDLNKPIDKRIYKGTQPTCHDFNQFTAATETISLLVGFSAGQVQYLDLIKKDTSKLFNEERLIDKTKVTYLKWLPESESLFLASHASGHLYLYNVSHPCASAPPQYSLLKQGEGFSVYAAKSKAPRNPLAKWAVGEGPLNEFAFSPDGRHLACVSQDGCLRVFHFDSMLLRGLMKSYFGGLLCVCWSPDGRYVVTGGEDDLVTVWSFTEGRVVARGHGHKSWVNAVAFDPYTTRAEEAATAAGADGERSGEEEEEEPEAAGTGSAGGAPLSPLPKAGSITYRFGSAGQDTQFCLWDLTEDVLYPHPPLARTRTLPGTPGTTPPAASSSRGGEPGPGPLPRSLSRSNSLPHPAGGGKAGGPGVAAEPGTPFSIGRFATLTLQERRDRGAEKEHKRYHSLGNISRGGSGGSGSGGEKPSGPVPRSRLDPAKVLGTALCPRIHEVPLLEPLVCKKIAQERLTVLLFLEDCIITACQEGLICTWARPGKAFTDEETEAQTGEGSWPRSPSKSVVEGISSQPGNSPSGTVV

Row | Target | thermal stability z-score [1, 3] | thermal stability z-score ([1]; arsenate co-treatment: none) | thermal stability z-score [2]
1 | TMEM55B (UniProt Q86T03) | 0.572 | 0.963 | 0.592
2 | CAD (UniProt P27708) | -0.284 | -1.08 | -0.201
3 | MASTL (UniProt Q96GX5) | -0.0186 | -0.102 | -0.0433
4 | DMWD (UniProt Q09019) | 0.459 | -0.167 | 0.407
5 | CRLF3 (UniProt Q8IUI8) | -0.236 | -0.971 | 0.0579
6 | DIDO1 (UniProt Q9BTC0) | 0.835 | 0.516 | -1.37
7 | POLR3K (UniProt Q9Y2Y1) | 0.542 | 0.567 | -3.08
8 | RFC2 (UniProt P35250) | -0.0963 | -0.26 | 0.381
9 | OCIAD1 (UniProt Q9NX40) | 0.0741 | -0.143 | -0.448
10 | MKNK2 (UniProt Q9HBH9) | -0.569 | 0.232 | 0.192
11 | PRKAA1 (UniProt Q13131) | -0.417 | -0.0988 | 0.048
12 | GDPD1 (UniProt Q8N9F7) | -0.226 | -0.624 | -1.05
13 | PSMG4 (UniProt Q5JS54) | -1.42 | -1.53 | -1.38
14 | KDM3A (UniProt Q9Y4C1) | 0.00835 | -0.0932 | -0.0481
15 | MED18 (UniProt Q9BUE0) | -0.0409 | 0.0953 | -0.382
16 | ILVBL (UniProt A1L0T0) | 1.34 | 0.509 | 0.772
17 | DNAJB1 (UniProt P25685) | 0.448 | 0.397 | 0.294
18 | EIF5A (UniProt P63241) | -0.138 | 0.0123 | -0.005
19 | TAGLN (UniProt Q01995) | -0.0305 | 1.13 | -1.55
20 | GPD1L (UniProt Q8N335) | 0.106 | -0.108 | -0.935
21 | RPL28 (UniProt P46779) | 0.57 | 0.375 | -0.548
22 | PTGR1 (UniProt Q14914) | 1.49 | 1.67 | 0.672
23 | CBR3 (UniProt O75828) | 0.347 | -0.0437 | 0.282
24 | UBE2E1 (UniProt P51965) | 0.456 | 0.441 | 11.8

Row | Target | thermal stability z-score [1, 3] | thermal stability z-score ([1]; arsenate co-treatment: none) | thermal stability z-score [2]
25 | GBE1 (UniProt Q04446) | -0.395 | 0.344 | -0.956
26 | SLC39A10 (UniProt Q9ULF5) | 0.0305 | -0.329 | 0.177
27 | C11ORF98 (UniProt E9PRG8) | -0.688 | -0.534 | -1.91
28 | UBE4B (UniProt O95155) | -0.444 | -0.412 | 0.599
29 | ARL1 (UniProt P40616) | -0.148 | -0.943 | 0.669
30 | OGT (UniProt O15294) | -0.039 | -0.08 | 0.254
31 | TTYH3 (UniProt Q9C0H2) | 0.027 | 0.0475 | -0.648
32 | TROVE2 (UniProt P10155) | -0.23 | -0.235 | -0.238
33 | PTPN6 (UniProt P29350) | -0.0229 | 0.0958 | -0.0221
34 | SNF8 (UniProt Q96H20) | -0.129 | -0.418 | -0.156
35 | PMPCA (UniProt Q10713) | -0.137 | -0.112 | 0.0736
36 | EEF1A1 (UniProt P68104) | -0.0408 | 0.166 | 0.2
37 | GLCE (UniProt O94923) | 0.386 | 0.177 | 0.231
38 | TPD52L2 (UniProt O43399) | 1.01 | 1.19 | 0.621
39 | NDUFS1 (UniProt P28331) | 0.106 | 0.134 | 0.842
40 | KIF3A (UniProt Q9Y496) | -0.146 | 0.418 | 0.523
41 | PEBP1 (UniProt P30086) | 0.203 | 0.0137 | -0.433
42 | HNRNPD (UniProt Q14103) | 0.285 | -0.223 | -0.562
43 | AVEN (UniProt Q9NQS1) | 0.134 | -0.00487 | -0.823
44 | ID1 (UniProt P41134) | 0.197 | 0.0434 | -0.00372
45 | PANK4 (UniProt Q9NVE7) | -0.399 | -0.303 | 0.112
46 | OPA1 (UniProt O60313) | -0.697 | -0.456 | 0.749
47 | OSBPL10 (UniProt Q9BXB5) | -1.14 | -0.711 | -1.41
48 | ERCC6 | 1.08 | 0.347 | -0.581

Row | Target | thermal stability z-score [1, 3] | thermal stability z-score ([1]; arsenate co-treatment: none) | thermal stability z-score [2]
49 | TARBP2 (UniProt Q15633) | 0.357 | 0.542 | -0.00318
50 | SNRPA (UniProt P09012) | 0.0421 | -0.126 | 0.938
51 | LSM14A (UniProt Q8ND56) | 0.62 | -0.111 | 1.03
52 | EIF3C (UniProt Q99613) | -0.304 | 0.183 | 0.498
53 | ESPL1 (UniProt Q14674) | 0.424 | -0.509 | 1.94
54 | PSPC1 (UniProt Q8WXF1) | -0.0313 | 0.551 | 0.449
55 | RPS13 (UniProt P62277) | 0.784 | 0.463 | -1.11
56 | HPS5 (UniProt Q9UPZ3) | -0.0872 | 0.00734 | -0.219
57 | BRAF (UniProt P15056) | -0.207 | 0.176 | 0.328
58 | CEBPZ (UniProt Q03701) | 0.161 | -0.141 | -1.01
59 | ZNF703 (UniProt Q9H7S9) | 0.173 | 0.148 | 0.019
60 | HECTD4 (UniProt Q9Y4D8) | -0.345 | 0.341 | 0.284
61 | TACC3 (UniProt Q9Y6A5) | -0.148 | -0.162 | 0.662
62 | PEA15 (UniProt Q15121) | 0.388 | 0.243 | 0.716
63 | CPM (UniProt P14384) | 0.0529 | -0.163 | 0.405
64 | MAGT1 (UniProt Q9H0U3) | -3.45 | -2.9 | 0.251
65 | ATP5C1 (UniProt P36542) | -0.36 | -0.306 | -0.252
66 | MRPS36 (UniProt P82909) | 0.32 | 0.0105 | 0.55
67 | UBE2Q1 (UniProt Q7Z7E8) | -0.546 | -0.425 | -0.514
68 | NUDT4 (UniProt Q9NZJ9) | -0.239 | -0.659 | -0.881
69 | RCN3 (UniProt Q96D15) | -0.715 | -0.986 | -0.0957
70 | AUP1 (UniProt Q9Y679) | -0.649 | -1.09 | -0.628
71 | C3 (UniProt P01024) | -1.67 | -1.75 | -0.371
72 | PRKCD (UniProt Q05655) | -0.0378 | 0.235 | -0.477
